Data published in patent US20240173419A1, “CDK2 DEGRADERS AND USES THEREOF” (Kymera Therapeutics, Inc., priority 2022, published 2024).

Target: T1, CDK2 (Homo sapiens, UniProt P24941)
T1 construct: endogenous in cells; host or cells: MKN1 cells
Test: CDK2 degradation in MKN1 cells (AlphaLISA)
Type: cell-based
Conditions: 14 h incubation; for DC50: read-out: CDK2 degradation 14 h: Mean external-Abs DC50
Description: Degradation of CDK2 in MKN1 cells was measured using AlphaLISA technology (PerkinElmer ALSU-TCDK2-A10K). MKN1 cells were maintained in RPMI1640 medium containing 10% FBS+1× penn/strep. Cells were seeded in 96-well plates (Corning 3599) at a density of 2e4 cells per well in 80 μL of fresh complete growth medium. Cells were incubated overnight at 37° C., 5% CO2. Compounds were then added to the cell assay plates with a final top concentration of 10 μM in a 1:5 dilution series with a total of 11 doses (0.001 nM-10 μM). The final volume per well was 160 μL and the final DMSO concentration was 0.1%. Additionally, wells containing no cells and only complete growth medium were also maintained on the cell assay plates (‘no cell’ wells) and processed along with experimental wells. After 14 hour-incubation at 37° C., 5% CO2, the medium was removed and the cells were washed once with 100 μL of 1×PBS. Following removal of PBS, 40 μL of 1× Lysis Buffer containing 1× protease and phosphatase inhibitors (Roche 4693116001; Roche 4906837001) were added to each well. The cell assay plate was agitated on a plate shaker at 350 rpm for 10 minutes at room temperature. 10 μL of each cell lysate were transferred to a 384-well plate (PerkinElmer 6007290). 10 μL of control lysates (from PerkinElmer ALSU-TCDK2-A10K kit) were added to separate wells to generate a standard curve. Activation Buffer was prepared by diluting 25-fold in combined Reaction Buffer 1 and Reaction Buffer 2. Acceptor Beads were diluted 50-fold in combined Reaction Buffers. 5 μL of Acceptor Mix were added to each well. The plate was sealed with Topseal-Aadhesive film, covered with foil, and incubated in the dark for 1 hour at room temperature. Under subdued light, the Donor Beads were diluted 50-fold in Dilution Buffer. 5 μL of Donor Mix were added to each well under subdued light. The plate was sealed with Topseal-A adhesive film, covered with foil, and incubated in the dark for 1 hour at room temperature. Under subdued light, the plates were analyzed on an EnVision Microplate Reader (PerkinElmer Model 2009-0030). The average signal from ‘no cell’ wells was subtracted from the signal in experimental wells prior to calculating Alpha signal for test compounds and negative control (0.100 DMSO). The data were analyzed using Xlfit (v5.3. 1.3) and the dose-dependent CDK2 degradation data were fit using a four-parameter logistic model to calculate DC50.

## Cc1cc(S(=O)(=O)NC(C)COC2CCC(CN3CC(c4cccc5c4n(C)c(=O)n5C4CCC(=O)NC4=O)C3)CC2)ccc1Nc1ncc(C(F)(F)F)c(N2CCCC(C)(O)C2)n1 (stereo not drawn) [I-850]
  CDK2 degradation 14 h: Average Dmax %: B (B (>50% -75%))
  DC50: < 100 nM

## CC1(O)CCC(c2nc(Nc3ccc(S(=O)(=O)NC4CCC(CN5CCN(c6ccc(C7CCC(=O)NC7=O)c(F)c6)CC5)CC4)cc3F)ncc2C(F)(F)F)CC1 (stereo not drawn) [I-1074]
  CDK2 degradation 14 h: Average Dmax %: A (A (>75% o))
  DC50: 100 to 500 nM

## Cc1cc(S(=O)(=O)C2CC3(CCN(CCC4CCN(c5cccc6c5n(C)c(=O)n6C5CCC(=O)NC5=O)CC4)CC3)C2)ccc1Nc1ncc2cc(Cl)c(=O)n(C3CCCC3)c2n1 (stereo not drawn) [I-40]
  CDK2 degradation 14 h: Average Dmax %: A (A (>75% o))
  DC50: < 100 nM

## Cc1cc(S(=O)(=O)C2CC3(CCN(CCOC4CN(c5ccc6c(c5F)n(C)c(=O)n6C5CCC(=O)NC5=O)C4)CC3)C2)ccc1Nc1ncc(C(F)(F)F)c(N2CCCC(C)(O)C2)n1 (stereo not drawn) [I-853]
  CDK2 degradation 14 h: Average Dmax %: B (B (>50% -75%))
  DC50: 100 to 500 nM

## Cc1cc(S(=O)(=O)N2CCC3(CCN(CC4CCN(c5ccc6c(c5)n(C)c(=O)n6C5CCC(=O)NC5=O)CC4)CC3)CC2)ccc1Nc1ncc2cc(Cl)c(=O)n(C3CCCC3)c2n1 (stereo not drawn) [I-381]
  CDK2 degradation 14 h: Average Dmax %: A (A (>75% o))
  DC50: < 100 nM

## Cc1cc(S(=O)(=O)NC2CCC(CN3CCN(c4cc(F)cc(NC5CCC(=O)NC5=O)c4)CC3)CC2)ccc1Nc1ncc(C(F)(F)F)c(N2CCCC(C)(O)C2)n1 (stereo not drawn) [I-1144]
  CDK2 degradation 14 h: Average Dmax %: A (A (>75% o))
  DC50: 100 to 500 nM

## Cc1cc(S(=O)(=O)NC2CCC(CN3CCN(c4cc(F)c(C5CCC(=O)NC5=O)cc4C)CC3)CC2)ccc1Nc1ncc(C(F)(F)F)c(N2CCCC(C)(O)C2)n1 (stereo not drawn) [I-806]
  CDK2 degradation 14 h: Average Dmax %: A (A (>75% o))
  DC50: < 100 nM

## COc1cc(N2CCN(CC3CCC(NS(=O)(=O)c4ccc(Nc5ncc(C(F)(F)F)c(N6CCCC(C)(O)C6)n5)c(C)c4)CC3)CC2)c(F)cc1NC1CCC(=O)NC1=O (stereo not drawn) [I-816]
  CDK2 degradation 14 h: Average Dmax %: A (A (>75% o))
  DC50: < 100 nM

## Cc1cc(S(=O)(=O)NCCOCCOCCOCCOCCCc2ccc3c(c2)n(C)c(=O)n3C2CCC(=O)NC2=O)ccc1Nc1ncc2ccc(=O)n(C3CCCC3)c2n1 (stereo not drawn) [I-973]
  CDK2 degradation 14 h: Average Dmax %: A (A (>75% o))
  DC50: < 100 nM

## Cc1cc(S(=O)(=O)C2CCN(CCCN3CCN(c4cccc5c4n(C)c(=O)n5C4CCC(=O)NC4=O)CC3)CC2)ccc1Nc1ncc2cc(Cl)c(=O)n(C(C)C)c2n1 (stereo not drawn) [I-47]
  CDK2 degradation 14 h: Average Dmax %: A (A (>75% o))
  DC50: < 100 nM

## Cc1cc(S(=O)(=O)C2CC3(CCN(CC4CCN(c5cccc(NC6CCC(=O)NC6=O)c5C)CC4)CC3)C2)ccc1Nc1ncc2cc(Cl)c(=O)n(C3CCCC3)c2n1 (stereo not drawn) [I-332]
  CDK2 degradation 14 h: Average Dmax %: A (A (>75% o))
  DC50: 100 to 500 nM

## Cc1cc(S(=O)(=O)C2CC3(CCN(CC4CCN(c5cnc6c(c5)c(C)cn6C5CCC(=O)NC5=O)CC4)CC3)C2)ccc1Nc1ncc2cc(Cl)c(=O)n(C3CCCC3)c2n1 (stereo not drawn) [I-305]
  CDK2 degradation 14 h: Average Dmax %: A (A (>75% o))
  DC50: 100 to 500 nM

## Cc1cc(S(=O)(=O)NC2CC(N3CCN(CC4CCN(c5ccc(Cl)c(NC6CCC(=O)NC6=O)c5)CC4)CC3)C2)ccc1Nc1ncc(C(F)(F)F)c(N2CCCC(C)(O)C2)n1 (stereo not drawn) [I-716]
  CDK2 degradation 14 h: Average Dmax %: B (B (>50% -75%))
  DC50: > 1000 nM

## Cc1cc(S(=O)(=O)NC2CCC(CN3CCN(c4cccc(C5CCC(=O)NC5=O)c4)CC3)CC2)ccc1Nc1ncc(C(F)(F)F)c(N2CCCC(C)(O)C2)n1 (stereo not drawn) [I-929]
  CDK2 degradation 14 h: Average Dmax %: C (C (>25% -50%))
  DC50: > 1000 nM

## Cc1nc(S(=O)(=O)NC2CCC(CN3CCN(c4ccc(C5CCC(=O)NC5=O)c(F)c4)CC3)CC2)ccc1Nc1ncc(C(F)(F)F)c(N2CCCC(C)(O)C2)n1 (stereo not drawn) [I-1049]
  CDK2 degradation 14 h: Average Dmax %: A (A (>75% o))
  DC50: < 100 nM

## Cc1cc(S(=O)(=O)NCCOC2CCC(CN3CCC(c4ccc5c(c4)n(C)c(=O)n5C4CCC(=O)NC4=O)CC3)CC2)ccc1Nc1ncc2ccc(=O)n(C3CCCC3)c2n1 (stereo not drawn) [I-468]
  CDK2 degradation 14 h: Average Dmax %: A (A (>75% o))
  DC50: < 100 nM

## Cc1cc(S(=O)(=O)N2CCC(CN(C)C3CCN(c4cccc5c4n(C)c(=O)n5C4CCC(=O)NC4=O)CC3)CC2)ccc1Nc1nc(OC2CCCCC2)c2nc[nH]c2n1 (stereo not drawn) [I-970]
  CDK2 degradation 14 h: Average Dmax %: A (A (>75% o))
  DC50: < 100 nM

## Cc1cc(S(=O)(=O)NC2CCC(CN3CCN(c4c(F)cc(C5CCC(=O)NC5=O)cc4F)CC3)CC2)ccc1Nc1ncc(C(F)(F)F)c(N2CCCC(C)(O)C2)n1 (stereo not drawn) [I-935]
  CDK2 degradation 14 h: Average Dmax %: A (A (>75% o))
  DC50: < 100 nM

## Cc1cc(S(=O)(=O)NC2CCC(CN3CCN(c4ccc(C5CCC(=O)NC5=O)c(Cl)c4)CC3)CC2)ncc1Nc1ncc(C(F)(F)F)c(N2CCCC(C)(O)C2)n1 (stereo not drawn) [I-1047]
  CDK2 degradation 14 h: Average Dmax %: A (A (>75% o))
  DC50: < 100 nM

## Cc1cc(S(=O)(=O)C2CC3(CCN(CC4CCN(c5cccc6c(N7CCC(=O)NC7=O)cncc56)CC4)CC3)C2)ccc1Nc1ncc2cc(Cl)c(=O)n(C3CCCC3)c2n1 [I-82]
  CDK2 degradation 14 h: Average Dmax %: A (A (>75% o))
  DC50: < 100 nM

## Cc1cc(S(=O)(=O)NC2CC3(C2)CN(CC2CN(c4ccc(C5CCC(=O)NC5=O)c(Cl)c4)C2)C3)ccc1Nc1ncc(C(F)(F)F)c(N2CCCC(C)(O)C2)n1 (stereo not drawn) [I-928]
  CDK2 degradation 14 h: Average Dmax %: A (A (>75% o))
  DC50: < 100 nM

## Cc1cc(S(=O)(=O)NCCOC2CCC(CN3CCC(c4ccc5c(c4)n(C)c(=O)n5C4CCC(=O)NC4=O)CC3)CC2)ccc1Nc1ncc2c(n1)N(C1CCCC1)C(=O)C21CC1 (stereo not drawn) [I-537]
  CDK2 degradation 14 h: Average Dmax %: A (A (>75% o))
  DC50: < 100 nM

## Cc1cc(S(=O)(=O)C2CC3(CCN(CC4CCN(c5ccc6c(c5F)n(C)c(=O)n6C5CCC(=O)NC5=O)CC4)CC3)C2)ccc1Nc1ncc2cc(Cl)c(=O)n(C3CCOCC3)c2n1 (stereo not drawn) [I-130]
  CDK2 degradation 14 h: Average Dmax %: D (D (<25%))
  DC50: > 1000 nM

## Cc1cc(S(=O)(=O)C2CCN(C3CCN(CC4CCN(c5cccc6c5n(C)c(=O)n6C5CCC(=O)NC5=O)CC4)CC3)CC2)ccc1Nc1ncc2cc(Cl)c(=O)n(C(C)C)c2n1 (stereo not drawn) [I-10]
  CDK2 degradation 14 h: Average Dmax %: A (A (>75% o))
  DC50: < 100 nM

## Cc1cc(S(=O)(=O)C2CCC(CN(C)C3CCN(c4cccc5c4n(C)c(=O)n5C4CCC(=O)NC4=O)CC3)CC2)ccc1Nc1ncc2cc(Cl)c(=O)n(C3CCCC34CC4)c2n1 (stereo not drawn) [I-60]
  CDK2 degradation 14 h: Average Dmax %: A (A (>75% o))
  DC50: < 100 nM

## Cc1cc(S(=O)(=O)N2CCC(N(CC(F)F)CC3CCN(c4cccc5c4n(C)c(=O)n5C4CCC(=O)NC4=O)CC3)CC2)ccc1Nc1ncc2cc(Cl)c(=O)n(C3CCCC34CC4)c2n1 (stereo not drawn) [I-353]
  CDK2 degradation 14 h: Average Dmax %: D (D (<25%))
  DC50: > 1000 nM

## COc1ccc2c(c1N1CCC(N(C)CC3CCN(S(=O)(=O)c4ccc(Nc5ncc6cc(Cl)c(=O)n(C(C)C)c6n5)c(C)c4)CC3)CC1)n(C)c(=O)n2C1CCC(=O)NC1=O (stereo not drawn) [I-379]
  CDK2 degradation 14 h: Average Dmax %: A (A (>75% o))
  DC50: < 100 nM

## CC1(O)CCCN(c2nc(Nc3ccc(S(=O)(=O)NC4CCN(CC5(C)CCN(c6ccc(C7CCC(=O)NC7=O)c(F)c6)CC5)CC4F)cc3F)ncc2C(F)(F)F)C1 (stereo not drawn) [I-1069]
  CDK2 degradation 14 h: Average Dmax %: A (A (>75% o))
  DC50: < 100 nM

## Cc1cc(S(=O)(=O)NC(C)COC2CCC(CN3CCN(c4ccc5c(c4F)n(C)c(=O)n5C4CCC(=O)NC4=O)CC3)CC2)ccc1Nc1ncc2cc(Cl)c(=O)n(C(C)C(C)(C)O)c2n1 (stereo not drawn) [I-843]
  CDK2 degradation 14 h: Average Dmax %: D (D (<25%))
  DC50: > 1000 nM

## Cc1cc(S(=O)(=O)NC2CCC(OC3CCN(c4ccc(C5CCC(=O)NC5=O)cc4F)CC3)CC2)ccc1Nc1ncc(C(F)(F)F)c(N2CCCC(C)(O)C2)n1 (stereo not drawn) [I-942]
  CDK2 degradation 14 h: Average Dmax %: A (A (>75% o))
  DC50: < 100 nM

## Cc1cc(S(=O)(=O)N2CCC(CN(C)C3CCN(c4cccc5c4n(C)c(=O)n5C4CCC(=O)NC4=O)CC3)CC2)ccc1Nc1nccc(-c2cnc(C)n2C(C)C)n1 (stereo not drawn) [I-1152]
  CDK2 degradation 14 h: Average Dmax %: A (A (>75% o))
  DC50: < 100 nM

## Cc1cc(S(=O)(=O)NC2CC(N3CCN(CC4CCN(c5cccc6c5n(C)c(=O)n6C5CCC(=O)NC5=O)CC4)CC3)C2)ccc1Nc1ncc(C(F)(F)F)c(N2CCCC(C)(O)C2)n1 (stereo not drawn) [I-834]
  CDK2 degradation 14 h: Average Dmax %: A (A (>75% o))
  DC50: < 100 nM

## Cc1cc(S(=O)(=O)C2CC3(CCN(CC4CCN(c5cccc(NC6CCC(=O)NC6=O)c5F)CC4)CC3)C2)ccc1Nc1ncc2cc(Cl)c(=O)n(C3CCCC3)c2n1 (stereo not drawn) [I-71]
  CDK2 degradation 14 h: Average Dmax %: A (A (>75% o))
  DC50: 100 to 500 nM
